Data from article PMC9240354, “Pharmacokinetics, Pharmacodynamics and Antiviral Efficacy of the MEK Inhibitor Zapnometinib in Animal Models and in Humans” (Frontiers in Pharmacology, 2022).
In brackets after ≈: the same amount, converted by molar mass. Where two headings read alike, the source gives them in different places.

Assays:
[1] = set-up: method as in Koch-Heier et al., manuscript in preparation; settings: mice, 75 mg/kg; previously unpublished preclinical data; ref Koch-Heier et al., manuscript in preparation; cited from earlier work
[2] = pharmacokinetics, summary regardless of species; format: in vivo, mice, hamsters, dogs, human; settings: regardless of species or formulation
Description: Pharmacokinetic analysis of the mouse plasma samples was performed using standard procedures at Prolytic GmbH (Frankfurt, Germany). Hamster plasma samples were analyzed at Synovo GmbH (Tuebingen, Germany) using HPLC MS/MS (Agilent 1260 HPLC with Sciex API4500) with linear response for plasma concentrations between 15 nM and 33 µM (6.1 ng/ml to 13.5 μg/ml). Pharmacokinetic analyses of the dog plasma samples were performed at Pharmascience Inc. (Montreal, Canada) using an HPLC MS/MS method for the determination of zapnometinib plasma concentrations. The validated calibration range for this assay is from 0.6 μg/ml to […] for which all validation requirements were successfully evaluated. Regressions, calibration standard, quality control sample, animal sample result tables, acquisition methods and chromatograms were generated by Applied Biosystems Analyst^TM software, version 1.6.2. Plasma concentrations of zapnometinib of the human samples were determined at SGS Life Sciences (Bioanalysis Department, Wavre, Belgium) using a validated HPLC MS/MS method with a lower limit of quantification of 10 ng/ml for the analyte zapnometinib. Statistical analysis was performed by SGS (demography and safety analyses, exposure, and compliance) using SAS® version 9.4 (SAS Institute Inc., Cary, NC, United States).

[3] = test system: MEK1/2; assay: phosphorylation of MEK and ERK in PMA-stimulated human PBMCs (Wes); settings: 50 µg/ml 1 h, then 400 nM PMA 30 min
Description: PBMCs from healthy donors were isolated, treated with zapnometinib, stimulated with Phorbol-12-Mystrat-13-Acetat (PMA) and analyzed for the reduction of MEK and ERK phosphorylation.
PBMCs of 30 ml human blood were isolated using SepMate^TM tubes (Stemcell Technologies, Vancouver, Canada) by density gradient centrifugation according to manufacturer’s instructions. The PBMCs were then cultured in the plasma and treated with 50 µg/ml zapnometinib or DMSO for 1 h at 37°C and 5% CO2. Afterwards, the PBMCs were stimulated with 400 nM PMA (Sigma-Aldrich, St. Louis, Missouri, USA) for 30 minutes at 37°C and 5% CO2. After stimulation, the cells were washed twice with PBS and centrifuged 8 minutes at 300 x g at RT. The cells were then lysed in 1x RIPA buffer and analyzed with Wes™ for phosphorylation of ERK and MEK using specific antibodies as described in the Pharmacodynamic assessment to determine level of MEK inhibition section. […]
PBMCs of healthy human volunteers were treated for 1 h with 50 µg/ml zapnometinib or DMSO as solvent control and subsequently stimulated for 30 minutes with 400 nM PMA. Cell lysates of the PBMCs were then analyzed with Wes™ for phosphorylated and total protein, and the ratio was used to calculate the phosphorylation levels. […]

[4] = plasma binding; settings: stated in discussion, no data shown
[5] = in vivo; settings: Syrian, hamster; for AUC(0-t) / Cmax / Tmax: po
[6] = test system: MEK; assay: MEK inhibition in PBMCs of healthy human volunteers (pERK/ERK, Wes); format: in vivo
Description: (§1) PBMCs were isolated from the same blood samples (30 µl mouse blood, 50 µl hamster blood, or 1 ml dog blood) used for pharmacokinetic analysis. After plasma separation as described in the section above (Blood sampling and preparation of plasma samples), the remaining red blood cells were lysed by adding 1 volume of red blood cell (RBC) lysis buffer (Thermo Fisher Scientific, Waltham, MA, United States) (300 µl for mice, 500 µl for hamster, and 10 ml for dogs). The samples were incubated for 15 min at RT and centrifuged at 500 x g for 5 min (RT). The supernatant was removed completely, and the pellet was washed twice with PBS. The PBMC cell pellets were store at −80°C until further analysis. PBMCs of 8 ml human blood were isolated using CPT^TM tubes. After a 20-min centrifugation at 1,650 x g at room temperature, the plasma was collected for PK analysis as described in the section above (Blood sampling and preparation of plasma samples). The PBMC layer was collected in a 15 ml tube (Greiner Bio-One, Frickenhausen, Germany), and washed twice with PBS by centrifugation at 300 x g for 10 min at RT. The PBMC pellets were store at −80°C until further PD assessment.
The pharmacodynamic assessment was performed using the Wes™ (Simple Western™) system which uses capillary electrophoresis to separate, identify and quantify proteins of interest. A chemiluminescence signal for each identified protein is detected and the area under the peak is calculated, which is then used for quantification. The 0.1x Sample Buffer, 400 mM dithiothreitol (DTT) solution, 5x Fluorescence Master Mix, and the Biotinylated Ladder (ProteinSimple®, Abingdon, Oxford, United Kingdom) were prepared according to manufacturer’s instructions. For all species, PBMCs were lysed in 1x radioimmunoprecipitation assay (RIPA) buffer (containing 0.24% (w/v) tris base (Sigma-Aldrich, St. Louis, MO, United States), 0.88% (w/v) NaCl (Carl Roth GmbH, Karlsruhe, Germany), 0.2% (v/v) 500 mM EDTA (Sigma-Aldrich), 1% (v/v) Triton X-100 (Sigma-Aldrich), 0.5% (w/v) sodium deoxycholate (Sigma-Aldrich), 0.1% (w/v) sodium dodecyl sulfate (SDS) (Carl Roth), 10% (v/v) glycerol (Carl Roth), 0.05% phenylmethyl sulfonyl fluoride (PMSF) (Carl Roth), 0.01% Benzonase® Nuclease (Sigma-Aldrich), protease inhibitor cocktail (Roche, Basel, Switzerland), and phosphatase inhibitor cocktail (Roche) in H2O), further diluted with 0.1x Sample Buffer (ProteinSimple®, Abingdon, Oxford, United Kingdom) to adjust the protein concentration to 1 μg/μl. Then the 5x Fluorescence Master Mix in DTT (ProteinSimple®) was added, and the samples were denatured for 5 min at 95°C, loaded onto the assay plate and analyzed using specific antibodies. […] The anti-rabbit secondary antibody (Cat# DM-001) was also purchased from ProteinSimple® and was ready to use. Data were analyzed with Compass software for simple western (ProteinSimple®). Using the ratio of pERK to ERK of each sample compared to control (pre-dose), the level of ERK phosphorylation was calculated and then converted into the percentage level of MEK inhibition.

[7] = test system: MEK; assay: MEK inhibition in PBMCs of treated mice (pERK/ERK, Wes); format: in vivo, C57BL/6 mice
Description: as §1, with “The PBMC layer was collected in a 15 ml tube (Greiner Bio-One, Frickenhausen, Germany), and washed twice with PBS by centrifugation at 300 x g for 10 min at RT. The PBMC pellets were store at −80°C until further PD assessment.” left out
(§2) The pharmacodynamic assessment was performed using the Wes™ (Simple Western™) system which uses capillary electrophoresis to separate, identify and quantify proteins of interest. A chemiluminescence signal for each identified protein is detected and the area under the peak is calculated, which is then used for quantification. The 0.1x Sample Buffer, 400 mM dithiothreitol (DTT) solution, 5x Fluorescence Master Mix, and the Biotinylated Ladder (ProteinSimple®, Abingdon, Oxford, United Kingdom) were prepared according to manufacturer’s instructions. […] Then the 5x Fluorescence Master Mix in DTT (ProteinSimple®) was added, and the samples were denatured for 5 min at 95°C, loaded onto the assay plate and analyzed using specific antibodies. […] The anti-rabbit secondary antibody (Cat# DM-001) was also purchased from ProteinSimple® and was ready to use. Data were analyzed with Compass software for simple western (ProteinSimple®). Using the ratio of pERK to ERK of each sample compared to control (pre-dose), the level of ERK phosphorylation was calculated and then converted into the percentage level of MEK inhibition.

[8] = test system: MEK; assay: MEK inhibition in PBMCs of treated Syrian hamsters (pERK/ERK, Wes); format: in vivo; settings: hamster PBMCs
Description: as §1, with “The PBMC layer was collected in a 15 ml tube (Greiner Bio-One, Frickenhausen, Germany), and washed twice with PBS by centrifugation at 300 x g for 10 min at RT. The PBMC pellets were store at −80°C until further PD assessment.” left out
as §2

[9] = Syrian hamsters
[10] = test system: MEK; assay: MEK inhibition in PBMCs of treated beagle dogs (pERK/ERK, Wes); format: in vivo; settings: formulation 3, plasma concentrations until Cmax vs ERK phosphorylation in PBMCs
Description: PBMCs were isolated from the same blood samples (30 µl mouse blood, 50 µl hamster blood, or 1 ml dog blood) used for pharmacokinetic analysis. After plasma separation as described in the section above (Blood sampling and preparation of plasma samples), the remaining red blood cells were lysed by adding 1 volume of red blood cell (RBC) lysis buffer (Thermo Fisher Scientific, Waltham, MA, United States) (300 µl for mice, 500 µl for hamster, and 10 ml for dogs). The samples were incubated for 15 min at RT and centrifuged at 500 x g for 5 min (RT). The supernatant was removed completely, and the pellet was washed twice with PBS. The PBMC cell pellets were store at −80°C until further analysis. […]
The pharmacodynamic assessment was performed using the Wes™ (Simple Western™) system which uses capillary electrophoresis to separate, identify and quantify proteins of interest. A chemiluminescence signal for each identified protein is detected and the area under the peak is calculated, which is then used for quantification. The 0.1x Sample Buffer, 400 mM dithiothreitol (DTT) solution, 5x Fluorescence Master Mix, and the Biotinylated Ladder (ProteinSimple®, Abingdon, Oxford, United Kingdom) were prepared according to manufacturer’s instructions. […] The anti-rabbit secondary antibody (Cat# DM-001) was also purchased from ProteinSimple® and was ready to use. […]

[11] = single oral dose 100 mg, vs pre-dose
[12] = single oral dose 300 mg, vs pre-dose
[13] = single oral dose 600 mg, vs pre-dose
[14] = single oral dose 900 mg, vs pre-dose

For `O=C(O)c1ccc(F)c(F)c1Nc1ccc(I)cc1Cl` [zapnometinib, 2-(2-Chloro-4-Iodophenylamino)-N-3,4-Difluoro benzoic acid], the tolerability [1] is listed as “well tolerated”, the “time to maximum plasma concentration (Cmax)” value [2] is listed as 2 to 4 h and the “phosphorylation of MEK” value [3] is listed as “directly prevents the phosphorylation of MEK”. The plasma binding [4] was “high plasma binding”, the half-life [5] was 8 h and the AUC(0-t) ([5]; 15 mg/kg) was 121 ± 4 µg·h/mL. For the same compound, the Cmax ([5]; 15 mg/kg) was 15000 ± 1000 ng/mL, the Tmax ([5]; 15 mg/kg) was 3 ± 1 h and the AUC(0-t) ([5]; 60 mg/kg) was 623 ± 87 µg·h/mL. For the same compound, the Cmax ([5]; 60 mg/kg) was 61000 ± 2000 ng/mL, the Tmax ([5]; 60 mg/kg) was 3 ± 1 h and the “MEK inhibition at Cmax” value ([6]; doses 100, 300 and 600 mg taken together) was “approximately 60%”. The “MEK inhibition at 24 h” value [6, 11] was 35 ± 25%, the “MEK inhibition at Cmax” value [6, 11] was 63 ± 8% and the “MEK inhibition at 24 h” value [6, 12] was 41 ± 26%. For the same compound, the “MEK inhibition at Cmax” value [6, 12] was 61 ± 18%, the “MEK inhibition at 24 h” value [6, 13] was 37 ± 20% and the “MEK inhibition at Cmax” value [6, 13] was 64 ± 22%. For the same compound, the “MEK inhibition at 24 h” value [6, 14] was 26 ± 26%, the “MEK inhibition at Cmax” value [6, 14] was 79 ± 20% and the “MEK inhibition, first maximum” value ([7]; 2 h after first treatment) was 72 ± 10%. The “MEK inhibition, second maximum” value ([7]; 22 h after first treatment (14 h after second)) was 80 ± 5%, the “MEK inhibition at end of observation period” value ([7]; t = 24 h) was 66 ± 19% and the “MEK inhibition 12 h after the first treatment” value ([8]; 15 mg/kg BID) was 25 ± 15%. For the same compound, the “MEK inhibition at 24 h” value ([8]; 15 mg/kg BID, 15 mg/kg) was 43 ± 8%, the “MEK inhibition at 24 h” value ([8]; 60 mg/kg OD) was 55 ± 26% and the “mean plasma concentration at 24 h” value ([9]; 15 mg/kg BID p.o.) was 1000 ± 200 ng/mL. The “plasma concentration 12 h after the first treatment” value ([9]; 15 mg/kg BID p.o., before second dose) was 2000 ± 100 ng/mL, the “mean plasma concentration at 24 h” value ([9]; 60 mg/kg OD p.o.) was 200 ± 600 ng/mL and the “IC50 (plasma concentration reducing ERK phosphorylation by 50% compared to pre-dose)” value [10] was 12.5 µg/mL (≈ 30.5 µM).
